Structures can show the parent of a compound that is named as a salt.
What was measured:
[1] = test system: experimental autoimmune encephalomyelitis (EAE); experiment: rat monophasic EAE model, DMF pilot experiment; type: in vivo, Female Lewis rats; settings: first pilot experiment, dose 120 mg/kg q.d. from day 0
Experimental: The efficacy of dimethyl fumarate (DMF) in acute monophasic models of experimental autoimmune encephalomyelitis (EAE) can be determined in a pilot experiment.
Female Lewis rats are immunized with an emulsion of myelin basic protein (MBP) from Guinea pig in complete Freund's adjuvant. A total of 200 micrograms of MBP is injected per rat at two sites subcutaneously (right paw and base of tail). Within 10 days the rats develop signs of paralysis which will be graded on a scale from 0 to 15 assessing the tail and each limb individually according to the method originally described by Weaver A. et al., FASEB J., 2005, 19(12): 1668-1670. The disease takes an acute monophasic course and is self-remitting. Usually by day 21 clinical scores reach values below 3.0.
Groups of 10 to 14 rats are dosed starting at the day of disease induction (day 0) with different doses of DMF in the range between 40 and 160 mg/kg once daily (q.d.). Clinical scores are assessed on a daily basis and disease development is compared between vehicle-treated rats and rats receiving DMF (vehicle: 0.5% Methylcellulose/0.5% Tween® 80). In parallel, body weights of the rats are monitored on a daily basis to follow general health. The experiment is terminated at day 21 whereupon hematology can be measured.
Plasma samples can be taken for compound concentration determination and for the measurement of protein markers. […]

[2] = test system: experimental autoimmune encephalomyelitis (EAE); experiment: combination efficacy experiment in rat EAE model; type: in vivo, Female Lewis rats; settings: FIG. 1, DMF 120 mg/kg q.d., ponesimod 100 mg/kg q.d., from day 0; for effect on clinical course of EAE (clinical score): n=11/group
Experimental: FIG. 1: Efficacy of ponesimod, DMF or its combination in rat EAE (n=11/group). Clinical scoring was performed daily by an independent examiner in a blinded manner. SEM=standard error of the mean. Female Lewis rats are immunized with an emulsion of myelin basic protein (MBP) from Guinea pig in complete Freund's adjuvant. A total of 200 micrograms of MBP is injected per rat at two sites subcutaneously (right paw and base of tail). Within 10 days the rats develop signs of paralysis which will be graded on a scale from 0 to 15 assessing the tail and each limb individually according to the method originally described by Weaver A. et al., FASEB J., 2005, 19(12): 1668-1670. The disease takes an acute monophasic course and is self-remitting. Usually by day 21 clinical scores reach values below 3.0. Groups of 10 to 14 rats are dosed starting at the day of disease induction (day 0) with different doses of DMF in the range between 40 and 160 mg/kg once daily (q.d.). Clinical scores are assessed on a daily basis and disease development is compared between vehicle-treated rats and rats receiving DMF (vehicle: 0.5% Methylcellulose/0.5% Tween® 80). In parallel, body weights of the rats are monitored on a daily basis to follow general health. The experiment is terminated at day 21 whereupon hematology can be measured. The combination efficacy experiment is performed in the same rat EAE model as described for the first pilot experiment. It consists of four treatment groups: • 1. Vehicle (0.5% Methylcellulose/0.5% Tween® 80) q.d., from day 0 • 2. DMF (120 mg/kg) q.d., from day 0 • 3. Ponesimod (100 mg/kg) q.d., from day 0 • 4. DMF (120 mg/kg) q.d., from day 0+ponesimod (100 mg/kg) q.d., from day 0 In life and termination endpoints are the same as described for the first pilot experiment.

[3] = test system: lymphocyte count in peripheral blood; experiment: ponesimod pilot experiment, lymphocyte count in peripheral blood; type: in vivo; settings: second pilot experiment, healthy female Lewis rats, dose 100 mg/kg
Experimental: In parallel to the measurement of efficacy of DMF in the EAE model, a second pilot experiment is required. Healthy female Lewis rats will receive ponesimod at different doses in the range from 0.3 to 100 mg/kg. The goal is to assess the dose-effect relationship of ponesimod on lymphocyte count in peripheral blood in this strain of rat.

[4] = test system: moderate to severe chronic plaque psoriasis; relapsing-remitting multiple sclerosis; settings: patients with moderate to severe chronic plaque psoriasis and with relapsing-remitting multiple sclerosis; cited from earlier work
[5] = test system: peripheral blood lymphocytes; settings: oral administration; cited from earlier work

SMILES | efficacy on EAE scores [1] | effect on clinical score from day 16 onwards ([2]; from day 16 onwards) | effect on clinical course of EAE (clinical score) [2] | efficacy on lymphocyte count reduction [3] | clinical benefit in phase II trials [4] | number of peripheral blood lymphocytes [5]
COC(=O)/C=C/C(=O)OC [DMF, dimethyl fumarate] | partial efficacy between none and strongest efficacy | no effect on clinical score anymore | moderate effect during the ascending phase of the disease | – | – | –
CCC/N=C1\S/C(=C\c2ccc(OC[C@H](O)CO)c(Cl)c2)C(=O)N1c1ccccc1C [ponesimod, (R)-5-[3-chloro-4-(2,3-dihydroxy-propoxy)-benz[Z]ylidene]-2-([Z]-propylimino)-3-o-tolyl-thiazolidin-4-one] | – | – | marked and statistically significant effect | full efficacy on lymphocyte count reduction | has shown clinical benefit | consistent, sustained, and dose-dependent reduction
